Test results from PubChem BioAssay (NCI).
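GI50 is the concentration that inhibits growth by half. TGI marks complete inhibition of growth.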

What was measured:
Assay in all cases: inhibition of tumour cell growth, NCI panel, 384-well format
[1] = system: CCRF-CEM leukemia
[2] = system: SK-MEL-5 melanoma
[3] = system: SF-295 CNS
[4] = system: OVCAR-5 ovarian
[5] = system: MCF7 breast
[6] = system: HOP-62 NSCLC
[7] = system: SF-268 CNS
[8] = system: 786-0 renal
[9] = system: NCI-H322M lung
[10] = system: U251 glioblastoma
[11] = system: NCI-H226 lung
[12] = system: HOP-92 NSCLC
[13] = system: KM12 colon
[14] = system: DU-145 prostate
[15] = system: OVCAR-3 ovarian
[16] = system: M14 melanoma
[17] = system: SW-620 colon
[18] = system: IGROV1 ovarian
[19] = system: UACC-257 melanoma
[20] = system: SNB-19 CNS
[21] = system: COLO 205 colon
[22] = system: OVCAR-8 ovarian
[23] = system: HCT-15 colon
[24] = system: T-47D breast
[25] = system: HCT-116 colon
[26] = system: MDA-MB-468 breast
[27] = system: TK-10 renal
[28] = system: MALME-3M melanoma
[29] = system: UACC-62 melanoma
[30] = system: HT29 colon
[31] = system: BT-549 breast
[32] = system: LOX IMVI melanoma
[33] = system: A498 renal
[34] = system: MDA-MB-435 melanoma
[35] = system: RXF 393 renal
[36] = system: SN12C renal
[37] = system: SK-MEL-28 melanoma
[38] = system: SF-539 CNS
[39] = system: CAKI-1 renal
[40] = system: EKVX NSCLC
[41] = system: ACHN renal
[42] = system: SNB-75 CNS
[43] = system: NCI-H23 lung
[44] = system: OVCAR-4 ovarian
[45] = system: RPMI-8226 leukemia
[46] = system: HL-60(TB) leukemia
[47] = system: MOLT-4 leukemia
[48] = system: SK-OV-3 ovarian
[49] = system: K-562 leukemia
[50] = system: HS 578T breast
[51] = system: NCI-H460 NSCLC
[52] = system: NCI-H522 lung
[53] = system: A549 NSCLC
[54] = system: PC-3 prostate
[55] = system: MDA-MB-231 breast
[56] = system: HCC-2998 colon
[57] = system: UO-31 renal
[58] = system: NCI/ADR-RES ovarian

Compound: Cc1ccc(NC(=O)c2ccnc(C(F)(F)F)c2)cc1-c1cc(OCCO)nc(N2CCOCC2)c1
- GI50 [1]: 385 nM
- TGI [1]: 1460 nM
- GI50 [2]: 155 nM
- TGI [2]: 437 nM
- GI50 [3]: 569 nM
- TGI [3]: 13900 nM
- GI50 [4]: 675 nM
- TGI [4]: 8880 nM
- GI50 [5]: 951 nM
- TGI [5]: 10900 nM
- GI50 [6]: 1230 nM
- TGI [6]: 11500 nM
- GI50 [7]: 211 nM
- TGI [7]: 532 nM
- GI50 [8]: 997 nM
- TGI [8]: 11700 nM
- GI50 [9]: 2010 nM
- TGI [9]: 16200 nM
- GI50 [10]: 595 nM
- TGI [10]: 5430 nM
- GI50 [11]: 577 nM
- TGI [11]: 6560 nM
- GI50 [12]: 928 nM
- TGI [12]: 3490 nM
- GI50 [13]: 523 nM
- TGI [13]: 5770 nM
- GI50 [14]: 2420 nM
- TGI [14]: > 100000 nM
- GI50 [15]: 461 nM
- TGI [15]: 1790 nM
- GI50 [16]: 129 nM
- TGI [16]: 603 nM
- GI50 [17]: 282 nM
- TGI [17]: 10500 nM
- GI50 [18]: 697 nM
- TGI [18]: 11400 nM
- GI50 [19]: 272 nM
- TGI [19]: 1310 nM
- GI50 [20]: 2380 nM
- TGI [20]: 18000 nM
- GI50 [21]: 214 nM
- TGI [21]: 1120 nM
- GI50 [22]: 777 nM
- TGI [22]: 4600 nM
- GI50 [23]: 339 nM
- TGI [23]: 9050 nM
- GI50 [24]: 754 nM
- TGI [24]: 5920 nM
- GI50 [25]: 243 nM
- TGI [25]: 2480 nM
- GI50 [26]: 359 nM
- TGI [26]: 1270 nM
- GI50 [27]: 1030 nM
- TGI [27]: 87600 nM
- GI50 [28]: 85.6 nM
- TGI [28]: 316 nM
- GI50 [29]: 152 nM
- TGI [29]: 526 nM
- GI50 [30]: 306 nM
- TGI [30]: 1990 nM
- GI50 [31]: 1210 nM
- TGI [31]: 6680 nM
- GI50 [32]: 171 nM
- TGI [32]: 1170 nM
- GI50 [33]: 1200 nM
- TGI [33]: 7920 nM
- GI50 [34]: 289 nM
- TGI [34]: 922 nM
- GI50 [35]: 342 nM
- TGI [35]: 1960 nM
- GI50 [36]: 1180 nM
- TGI [36]: 10400 nM
- GI50 [37]: 253 nM
- TGI [37]: 758 nM
- GI50 [38]: 927 nM
- TGI [38]: 3750 nM
- GI50 [39]: 847 nM
- TGI [39]: 18100 nM
- GI50 [40]: 2850 nM
- TGI [40]: 14800 nM
- GI50 [41]: 787 nM
- TGI [41]: 12300 nM
- GI50 [42]: 1340 nM
- TGI [42]: 9720 nM
- GI50 [43]: 79.2 nM
- TGI [43]: 1100 nM
- GI50 [44]: 3870 nM
- TGI [44]: 20000 nM
- GI50 [45]: 344 nM
- TGI [45]: 974 nM
- GI50 [46]: 68 nM
- TGI [46]: 1090 nM
- GI50 [47]: 172 nM
- TGI [47]: 317 nM
- GI50 [48]: 1780 nM
- TGI [48]: 17800 nM
- GI50 [49]: 428 nM
- TGI [49]: 1720 nM
- GI50 [50]: 1190 nM
- TGI [50]: 3650 nM
- GI50 [51]: 379 nM
- TGI [51]: 10600 nM
- GI50 [52]: 274 nM
- TGI [52]: 755 nM
- GI50 [53]: 591 nM
- TGI [53]: 14500 nM
- GI50 [54]: 750 nM
- TGI [54]: 14200 nM
- GI50 [55]: 37.3 nM
- TGI [55]: 12100 nM
- GI50 [56]: 224 nM
- TGI [56]: 1270 nM
- GI50 [57]: 1120 nM
- TGI [57]: 3410 nM
- GI50 [58]: 2190 nM
- TGI [58]: 5240 nM
